Experimental data as given in US12227496B2 (BRISTOL-MYERS SQUIBB COMPANY, priority 2019, dated 2025).

Target: T1, human FXR (Homo sapiens, UniProt Q96RI1)
T1 construct: expressed in transfected cells; host or cells: HEK293 cells stably carrying a 5xGal4-response-element firefly luciferase reporter, transiently transfected with pcDNA3.1-Gal4-FXR
T1 sequence (Q96RI1 262-486 limits assumed): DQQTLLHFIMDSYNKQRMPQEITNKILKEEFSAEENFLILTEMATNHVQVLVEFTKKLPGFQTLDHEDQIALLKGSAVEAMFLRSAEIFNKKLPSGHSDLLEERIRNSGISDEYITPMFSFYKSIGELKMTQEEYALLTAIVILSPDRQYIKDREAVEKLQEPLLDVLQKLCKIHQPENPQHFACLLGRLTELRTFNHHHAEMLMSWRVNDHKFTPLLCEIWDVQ
Assay: transient human FXR/Gal4-luciferase reporter assay
Type: cell-based
Conditions: Gal4-hFXR LBD fusion, luciferase reporter in HEK293 cells; response relative to 8 μM GW-4064
How it was run: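 HEK293 cells stably carrying a 5×Gal4-response-element firefly luciferase reporter were transiently transfected with Gal4-hFXR. They were then incubated overnight at 37 °C with compound serial dilutions in medium containing 10% charcoal/dextran-stripped FBS. Luminescence was read after Steady-Glo addition.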

Structure (SMILES) | EC50
COc1cc(-c2cccc(N(CC34CCC(c5nnnn5C)(CC3)CC4)C(=O)C3CCCCC3)c2)ccn1 [Example 100, N-(3-(2-methoxypyridin-4-yl)phenyl)-N-((4-(1-methyl-1H-tetrazol-5-yl)bicyclo[2.2.2]octan-1-yl)methyl)cyclohexanecarboxamide] | 506 nM
CCOc1cc(-c2cccc(N(CC34CCC(c5nc(C6CC6)no5)(CC3)CC4)C(=O)C3CCCCC3)c2)ccn1 [Example 78, N-((4-(3-cyclopropyl-1,2,4-oxadiazol-5-yl)bicyclo[2.2.2]octan-1-yl)methyl)-N-(3-(2-ethoxypyridin-4-yl)phenyl)cyclohexane carboxamide] | 181 nM
CCOc1ncc(-c2cc(N(CC34CCC(c5noc(C(C)(F)F)n5)(CC3)CC4)C(=O)C3CCC(F)(F)CC3)ccc2F)cn1 [Example 106, N-((4-(5-(1,1-difluoroethyl)-1,2,4-oxadiazol-3-yl)bicyclo[2.2.2]octan-1-yl)methyl)-N-(3-(2-ethoxypyrimidin-5-yl)-4-fluorophenyl)-4,4-difluorocyclohexane-1-carboxamide] | 406 nM
O=C(C1CCC(F)(F)CC1)N(CC12CCC(c3noc(C4(C(F)(F)F)CC4)n3)(CC1)CC2)c1cccc(-c2cc(C3CC3)no2)c1 [Example 149, N-(3-(3-cyclopropylisoxazol-5-yl)phenyl)-4,4-difluoro-N-((4-(5-(1-(trifluoromethyl)cyclopropyl)-1,2,4-oxadiazol-3-yl)bicyclo[2.2.2]octan-1-yl)methyl)cyclohexane-1-carboxamide] | 78 nM
CCc1noc(-c2cccc(N(CC34CCC(c5nc(C6CC6)no5)(CC3)CC4)C(=O)C3CCCCC3)c2)n1 [Example 4, N-((4-(3-cyclopropyl-1,2,4-oxadiazol-5-yl)bicyclo[2.2.2]octan-1-yl)methyl)-N-(3-(3-ethyl-1,2,4-oxadiazol-5-yl)phenyl)cyclohexanecarboxamide] | 49 nM
CC1CN(C(=O)N(CC23CCC(c4nc(C5CC5)no4)(CC2)CC3)c2cccc(-c3nc(C4CC4)no3)c2)CC(C)O1 (stereo not drawn) [Example 63, N-((4-(3-cyclopropyl-1,2,4-oxadiazol-5-yl)bicyclo[2.2.2]octan-1-yl)methyl)-N-(3-(3-cyclopropyl-1,2,4-oxadiazol-5-yl)phenyl)-2,6-dimethylmorpholine-4-carboxamide] | 1130 nM
COc1cc(-c2cccc(N(CC34CCC(C(=O)NC5CC5)(CC3)CC4)C(=O)C3CCCCC3)c2)ccn1 [Example 98, N-cyclopropyl-4-((N-(3-(2-methoxypyridin-4-yl)phenyl)cyclohexanecarboxamido)methyl)bicyclo[2.2.2]octane-1-carboxamide] | 399 nM
Cn1nc(-c2cccc(N(CC34CCC(c5nc(C6CC6)no5)(CC3)CC4)C(=O)C3CCOCC3)c2)cc1C1CC1 [Example 50, N-((4-(3-cyclopropyl-1,2,4-oxadiazol-5-yl)bicyclo[2.2.2]octan-1-yl)methyl)-N-(3-(5-cyclopropyl-1-methyl-1H-pyrazol-3-yl)phenyl)tetrahydro-2H-pyran-4-carboxamide] | 334 nM
CCOc1nnc(-c2cccc(N(CC34CCC(c5nc(C6CC6)no5)(CC3)CC4)C(=O)C3CCC(F)(F)CC3)c2)o1 [Example 39, N-((4-(3-cyclopropyl-1,2,4-oxadiazol-5-yl)bicyclo[2.2.2]octan-1-yl)methyl)-N-(3-(5-ethoxy-1,3,4-oxadiazol-2-yl)phenyl)-4,4-difluorocyclohexane-1-carboxamide] | 130 nM
Cn1nc(C2CC2)cc1C12CCC(CN(C(=O)C3CCS(=O)(=O)CC3)c3cccc(-c4ccc(S(C)(=O)=O)cc4)c3)(CC1)CC2 [Example 135, N-((4-(3-cyclopropyl-1-methyl-1H-pyrazol-5-yl)bicyclo[2.2.2]octan-1-yl)methyl)-N-(4′-(methylsulfonyl)-[1,1′-biphenyl]-3-yl)tetrahydro-2H-thiopyran-4-carboxamide 1,1-dioxide] | 4000 nM
Cn1nc(C2CC2)cc1C12CCC(CN(C(=O)C3CCS(=O)(=O)CC3)c3cccc(-c4cc(C5CC5)on4)c3)(CC1)CC2 [Example 131, N-((4-(3-cyclopropyl-1-methyl-1H-pyrazol-5-yl)bicyclo[2.2.2]octan-1-yl)methyl)-N-(3-(5-cyclopropylisoxazol-3-yl)phenyl)tetrahydro-2H-thiopyran-4-carboxamide 1,1-dioxide] | 1930 nM
COc1cc(-c2cccc(N(CC34CCC(c5nc(C6CC6)no5)(CC3)CC4)C(=O)C3CCOCC3)c2)ccn1 [Example 83, N-((4-(3-cyclopropyl-1,2,4-oxadiazol-5-yl)bicyclo[2.2.2]octan-1-yl)methyl)-N-(3-(2-methoxypyridin-4-yl)phenyl)tetrahydro-2H-pyran-4-carboxamide] | 303 nM
CN1CCN(C(=O)N(CC23CCC(c4nc(C5CC5)no4)(CC2)CC3)c2cccc(-c3nc(C4CC4)no3)c2)CC1 [Example 59, N-((4-(3-cyclopropyl-1,2,4-oxadiazol-5-yl)bicyclo[2.2.2]octan-1-yl)methyl)-N-(3-(3-cyclopropyl-1,2,4-oxadiazol-5-yl)phenyl)-4-methylpiperazine-1-carboxamide] | 1380 nM
CC(C)(C)c1nc(C23CCC(CN(C(=O)C4CCOCC4)c4cccc(-c5nc(C6CC6)no5)c4)(CC2)CC3)no1 [Example 116, N-((4-(5-(tert-butyl)-1,2,4-oxadiazol-3-yl)bicyclo[2.2.2]octan-1-yl)methyl)-N-(3-(3-cyclopropyl-1,2,4-oxadiazol-5-yl)phenyl)tetrahydro-2H-pyran-4-carboxamide] | 61 nM
O=C(C1CCC(F)(F)CC1)N(CC12CCC(c3noc(C(F)(F)F)n3)(CC1)CC2)c1cccc(-c2cnc(C3CC3)nc2)c1 [Example 119, N-(3-(2-cyclopropylpyrimidin-5-yl)phenyl)-4,4-difluoro-N-((4-(5-(trifluoromethyl)-1,2,4-oxadiazol-3-yl)bicyclo[2.2.2]octan-1-yl)methyl)cyclohexane-1-carboxamide] | 290 nM
CCOc1ccc(-c2cc(N(CC34CCC(c5noc(C(C)(F)F)n5)(CC3)CC4)C(=O)C3CCC(F)(F)CC3)ccc2F)cc1 [Example 105, N-((4-(5-(1,1-difluoroethyl)-1,2,4-oxadiazol-3-yl)bicyclo[2.2.2]octan-1-yl)methyl)-N-(4′-ethoxy-6-fluoro-[1,1′-biphenyl]-3-yl)-4,4-difluorocyclohexane-1-carboxamide] | 637 nM
CC(F)(F)c1nc(C23CCC(CN(C(=O)C4CCOCC4)c4cccc(-c5cc(C6CC6)on5)c4)(CC2)CC3)no1 [Example 156, N-(3-(5-cyclopropylisoxazol-3-yl)phenyl)-N-((4-(5-(1,1-difluoroethyl)-1,2,4-oxadiazol-3-yl)bicyclo[2.2.2]octan-1-yl)methyl)tetrahydro-2H-pyran-4-carboxamide] | 44 nM
COc1cc(-c2cccc(N(CC34CCC(c5nc(C6CC6)no5)(CC3)CC4)C(=O)C3CCCCC3)c2)no1 [Example 12, N-((4-(3-cyclopropyl-1,2,4-oxadiazol-5-yl)bicyclo[2.2.2]octan-1-yl)methyl)-N-(3-(5-methoxyisoxazol-3-yl)phenyl)cyclohexanecarboxamide] | 129 nM
O=C(C1CCOCC1)N(CC12CCC(c3nc(C4CC4)no3)(CC1)CC2)c1cccc(-c2nnc(C3CC3)o2)c1 [Example 54, N-((4-(3-cyclopropyl-1,2,4-oxadiazol-5-yl)bicyclo[2.2.2]octan-1-yl)methyl)-N-(3-(5-cyclopropyl-1,3,4-oxadiazol-2-yl)phenyl)tetrahydro-2H-pyran-4-carboxamide] | 373 nM
COCc1nc(-c2cccc(N(CC34CCC(c5nc(C6CC6)no5)(CC3)CC4)C(=O)C3CCCCC3)c2)cs1 [Example 49, N-((4-(3-cyclopropyl-1,2,4-oxadiazol-5-yl)bicyclo[2.2.2]octan-1-yl)methyl)-N-(3-(2-(methoxymethyl)thiazol-4-yl)phenyl)cyclohexanecarboxamide] | 105 nM
CC(F)(F)c1nc(C23CCC(CN(C(=O)C4CCOCC4)c4cccc(-c5ccc(OC(F)F)cc5)c4)(CC2)CC3)no1 [Example 109, N-((4-(5-(1,1-difluoroethyl)-1,2,4-oxadiazol-3-yl)bicyclo[2.2.2]octan-1-yl)methyl)-N-(4′-(difluoromethoxy)-[1,1′-biphenyl]-3-yl)tetrahydro-2H-pyran-4-carboxamide] | 50 nM
CC(C)(C)c1nc(C23CCC(CN(C(=O)C4CCC(F)(F)CC4)c4cccc(-c5cc(C6CC6)on5)c4)(CC2)CC3)no1 [Example 162, N-((4-(5-(tert-butyl)-1,2,4-oxadiazol-3-yl)bicyclo[2.2.2]octan-1-yl)methyl)-N-(3-(5-cyclopropylisoxazol-3-yl)phenyl)-4,4-difluorocyclohexane-1-carboxamide] | 41 nM
Cc1noc(-c2cccc(N(CC34CCC(c5nc(C)no5)(CC3)CC4)C(=O)C3CCCCC3)c2)n1 [Example 1, N-((4-(3-methyl-1,2,4-oxadiazol-5-yl)bicyclo[2.2.2]octan-1-yl)methyl)-N-(3-(3-methyl-1,2,4-oxadiazol-5-yl)phenyl)cyclohexanecarboxamide] | 736 nM
CC(C)(C)c1noc(C23CCC(CN(C(=O)C4CCOCC4)c4cc(F)cc(-c5nc(C6CC6)no5)c4)(CC2)CC3)n1 [Example 115, N-((4-(3-(tert-butyl)-1,2,4-oxadiazol-5-yl)bicyclo[2.2.2]octan-1-yl)methyl)-N-(3-(3-cyclopropyl-1,2,4-oxadiazol-5-yl)-5-fluorophenyl)tetrahydro-2H-pyran-4-carboxamide] | 83 nM
